Measurements as given in article PMC7261474 (Journal of medicinal chemistry, 2020).
“And” between values parts separate entries of the source, which are not always exact repeats. Equal values may be shown once. Read-outs that look alike come from different tables or passages of the source. Where a SMILES comes first, the peptide text is derived from it. [ ]: non-standard residue; d: D form. The star is where a group is joined. hPhe = N[CH](CCc1ccccc1)C(=O)O; 4Pal = N[CH](Cc1ccncc1)C(=O)O; AMC = Cc1cc(=O)oc2cc(N*)ccc12; Cbz = O=C(OCc1ccccc1)*

Legend:
[1] = target: T1, cruzain (Trypanosoma cruzi, UniProt P25779); experiment: Cruzain-catalysed hydrolysis of fluorogenic dipeptide-AMC substrates; type: biochemical; conditions: for Km / kcat: pH 7.5, 25 °C, 10% DMSO (v/v); for kcat rel: relative to S1 Cbz-Phe-Arg-AMC, S6 and S12 from 2% DMSO data
T1 sequence (P25779 123-467): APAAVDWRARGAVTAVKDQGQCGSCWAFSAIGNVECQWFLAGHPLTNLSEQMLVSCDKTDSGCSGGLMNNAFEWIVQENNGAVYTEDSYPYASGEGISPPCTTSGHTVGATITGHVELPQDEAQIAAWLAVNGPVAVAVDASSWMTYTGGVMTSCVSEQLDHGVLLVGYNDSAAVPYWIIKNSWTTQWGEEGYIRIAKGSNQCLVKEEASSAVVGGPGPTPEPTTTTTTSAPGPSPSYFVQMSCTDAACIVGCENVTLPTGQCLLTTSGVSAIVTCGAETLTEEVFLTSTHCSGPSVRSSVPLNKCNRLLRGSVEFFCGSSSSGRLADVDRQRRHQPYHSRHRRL

[2] = tested on: T. cruzi strain Ca-I/72 in C2C12 mouse cardiomyoblasts; conditions: ref [55]; cited from earlier work
[3] = target: T1, cruzain; experiment: Cruzain inhibition/inactivation, time courses with Cbz-Phe-Arg-AMC
[4] = target: T1, cruzain; conditions: 2% DMSO (v/v); ref [40]; cited from earlier work
[5] = tested on: T. cruzi (epimastigote forms, strain Y, ATCC 50832GFP); experiment: Growth inhibition of T. cruzi epimastigotes in axenic culture; type: cell-based, Trypanosoma cruzi; conditions: 5 days
[6] = Covalent adduct formation with glutathione; type: physicochemical; conditions: for reaction with GSH (adduct formation): 90 min incubation, 2:1 or 10:1 molar ratio GSH/inhibitor; for rate of formation of GSH adduct: 2:1 molar ratio GSH/inhibitor; for Keq of GSH adduct (apparent equilibrium): 2:1 molar ratio, equilibrium in 90 min
[7] = tested on: Primary human dermal fibroblast (HDF) cells; experiment: Human cell toxicity; type: cell-based; conditions: CC50 in human dermal fibroblasts / EC50 in infected cardiomyoblasts
[8] = target: human cathepsin L (Homo sapiens, UniProt P07711); experiment: Human cathepsin L assay with Cbz-Phe-Arg-AMC; type: biochemical; conditions: pH 5.5, 25 °C, 10% DMSO
Chain of human cathepsin L (P07711 114-333): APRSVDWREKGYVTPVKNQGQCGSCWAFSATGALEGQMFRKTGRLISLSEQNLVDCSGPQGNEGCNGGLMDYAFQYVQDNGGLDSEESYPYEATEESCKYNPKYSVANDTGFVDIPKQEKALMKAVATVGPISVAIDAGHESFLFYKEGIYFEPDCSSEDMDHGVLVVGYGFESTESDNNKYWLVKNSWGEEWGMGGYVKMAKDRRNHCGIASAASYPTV

[9] = target: human cathepsin B (Homo sapiens, UniProt P07858); experiment: Human cathepsin B assay with Cbz-Phe-Arg-AMC; type: biochemical; conditions: pH 5.5, 25 °C, 10% DMSO
[10] = target: human cathepsin S (Homo sapiens, UniProt P25774); experiment: Human cathepsin S assay with Cbz-Phe-Arg-AMC; type: biochemical; conditions: pH 5.5, 25 °C, 10% DMSO
Chain of human cathepsin S (P25774 115-331): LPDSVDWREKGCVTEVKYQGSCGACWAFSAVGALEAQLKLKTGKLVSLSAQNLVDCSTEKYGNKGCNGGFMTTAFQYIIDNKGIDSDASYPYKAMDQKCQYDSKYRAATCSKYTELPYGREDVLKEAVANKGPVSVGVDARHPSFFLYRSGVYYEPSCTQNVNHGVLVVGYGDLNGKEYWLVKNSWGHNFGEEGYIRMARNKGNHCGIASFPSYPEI

Row | Structure (SMILES) | Km [1] [µM] | kcat [1] | kcat rel [1] | also measured
1 | Cc1cc(=O)oc2cc(NC(=O)[C@H](Cc3ccccc3)NC(=O)[C@H](Cc3ccccc3)NC(=O)N3CCN(C)CC3)ccc12 [S11, NMePip-Phe-Phe-AMC] | 14 ± 4 | 2.8 ± 0.06 s⁻¹ | 0.29 | 
2 | O=C(Cn1ccnc1[N+](=O)[O-])NCc1ccccc1 [benznidazole] |  |  |  | LD50 (antichagasic potency) [2]: 1500 nM
3 | O=C(N[C@@H](Cc1ccccc1)C(=O)NC(CCc1ncccn1)Cc1ccccc1)OCc1ccccc1 (stereo in doubt) [Compound 27, Benzyl ((S)-1-Oxo-3-phenyl-1-(((S)-1-phenyl-4-(pyrimidin-2-yl)-butan-2-yl)amino)propan-2-yl)carbamate] |  |  |  | Ki [3]: 22000 nM
4 | Cc1cc(=O)oc2cc(NC(=O)C(CCc3ccccc3)NC(=O)C(CC(C)C)NC(=O)OCc3ccccc3)ccc12 (stereo not drawn) [S3, Cbz-Leu-hPhe-AMC] (Cbz-Leu-[hPhe]-{AMC}; configuration not given here) | 0.8 ± 0.2 | 3.0 ± 0.2 s⁻¹ |  | 
5 | Cc1cc(=O)oc2cc(NC(=O)C(CCc3ccccc3)NC(=O)C(CCCN=C(N)N)NC(=O)OCc3ccccc3)ccc12 (stereo not drawn) [S10, Cbz-Arg-hPhe-AMC] | 6.8 ± 0.4 | 4.9 s⁻¹ and 4.9 ± 0.1 s⁻¹ | 0.51 | 
6 | Cc1cc(=O)oc2cc(NC(=O)[C@H](Cc3ccccc3)NC(=O)[C@H](Cc3ccccc3)NC(=O)OCc3ccccc3)ccc12 [S9, Cbz-Phe-Phe-AMC] (Cbz-Phe-Phe-{AMC}) | 0.34 ± 0.06 | 0.26 ± 0.01 s⁻¹ | 0.03 | 
7 | Cc1cc(=O)oc2cc(NC(=O)[C@H](CCCN=C(N)N)NC(=O)[C@H](CCCN=C(N)N)NC(=O)OCc3ccccc3)ccc12 [S6, Cbz-Arg-Arg-AMC] (Cbz-Arg-Arg-{AMC}) |  |  | 0.75 | Km [4]: 3.7 ± 0.4 µM; kcat [4]: 7.2 ± 0.1 s⁻¹
8 | Cc1cc(=O)oc2cc(NC(=O)C(Cc3ccncc3)NC(=O)C(Cc3ccccc3)NC(=O)OCc3ccccc3)ccc12 (stereo not drawn) [S5, Cbz-Phe-(4-Pyr)Ala-AMC] (Cbz-Phe-[4Pal]-{AMC}; configuration not given here) | 3.7 ± 0.5 | 7.5 ± 0.5 s⁻¹ | 0.76 | 
9 | O=C(N[C@@H](Cc1ccccc1)C(=O)N[C@H](/C=C/c1ncco1)Cc1ccccc1)OCc1ccccc1 [Compound 24, Benzyl ((S)-1-(((S,E)-4-(Oxazol-2-yl)-1-phenylbut-3-en-2-yl)-amino)-1-oxo-3-phenylpropan-2-yl)carbamate] |  |  |  | T. cruzi axenic culture EC50 [5]: poorly effective
10 | O=C(N[C@@H](Cc1ccccc1)C(=O)N[C@H](/C=C/c1ncccn1)Cc1ccccc1)OCc1ccccc1 [Compound 7, Benzyl ((S)-1-Oxo-3-phenyl-1-(((S,E)-1-phenyl-4-(pyrimidin-2-yl)-but-3-en-2-yl)amino)propan-2-yl)carbamate] |  |  |  | reaction with GSH (adduct formation) ([6]; pH 8.0): no adduct was observed
11 | Cc1cc(=O)oc2cc(NC(=O)[C@H](CCc3ccccc3)NC(=O)[C@H](Cc3ccccc3)NC(=O)OCc3ccccc3)ccc12 [S2, Cbz-Phe-hPhe-AMC] (Cbz-Phe-[hPhe]-{AMC}) | 0.26 ± 0.06 | 2.0 ± 0.2 s⁻¹ | 0.21 | 
12 | CN1CCN(C(=O)N[C@@H](Cc2ccccc2)C(=O)N[C@H](/C=C/S(=O)(=O)c2ccccc2)CCc2ccccc2)CC1 [K11777, reference compound] |  |  |  | rate of glutathione adduct formation k ([6]; 0.5 mM compound, 1 mM GSH, pH 8.0): 0.00028 s⁻¹
13 | Cc1cc(=O)oc2cc(NC(=O)C(C)NC(=O)C(Cc3ccccc3)NC(=O)OCc3ccccc3)ccc12 (stereo not drawn) [S12, Cbz-Phe-Ala-AMC] |  |  | 0.09 | Km [4]: 38 ± 2 µM; kcat [4]: 0.89 ± 0.06 s⁻¹
14 | C[n+]1ccccc1/C=C/[C@H](CCc1ccccc1)NC(=O)[C@H](Cc1ccccc1)NC(=O)OCc1ccccc1 [Compound 15, 2-((S,E)-3-((S)-2-(((Benzyloxy)carbonyl)amino)-3-phenylpropanamido)-5-phenylpent-1-en-1-yl)-1-methylpyridin-1-ium] |  |  |  | selectivity index CC50/EC50 [7]: >20; rate of formation of GSH adduct ([6]; pH 8.0): 54 M⁻¹ s⁻¹; Keq of GSH adduct (apparent equilibrium) ([6]; pH 8.0): 2400 M⁻¹; Ki [3]: 600 ± 200 nM; k3 (eq 6) ([3]; pH 7.5, global fitting to eq 6): 0.0012 ± 0.0004 s⁻¹; k4 (eq 6) ([3]; pH 7.5, global fitting to eq 6): 0.00019 ± 0.00005 s⁻¹
15 | Cc1cc(=O)oc2cc(NC(=O)C(CCc3ccccc3)NC(=O)C(Cc3ccccc3)NC(=O)N3CCN(C)CC3)ccc12 (stereo not drawn) [S7, NMePip-Phe-hPhe-AMC] | 3.1 ± 0.3 | 4.0 ± 0.1 s⁻¹ | 0.42 | 
16 | Cc1cc(=O)oc2cc(NC(=O)[C@H](CCCN=C(N)N)NC(=O)[C@H](Cc3ccccc3)NC(=O)OCc3ccccc3)ccc12 [S1, Cbz-Phe-Arg-AMC, reference compound] (Cbz-Phe-Arg-{AMC}) | 0.89 ± 0.09 | 9.6 ± 0.2 s⁻¹ | 1.00 | Michaelis constant, cathepsin L [8]: 2.9 µM; Michaelis constant, cathepsin B [9]: 150 µM; Michaelis constant, cathepsin S [10]: 60 µM
17 | C[n+]1ccccc1/C=C/[C@H](Cc1ccccc1)NC(=O)[C@H](Cc1ccccc1)NC(=O)OCc1ccccc1.[I-] [Compound 12, 2-((S,E)-3-((S)-2-(((Benzyloxy)carbonyl)amino)-3-phenylpropanamido)-4-phenylbut-1-en-1-yl)-1-methylpyridin-1-ium Iodide] |  |  |  | selectivity index CC50/EC50 [7]: >10; rate of formation of GSH adduct ([6]; pH 8.0): 37 M⁻¹ s⁻¹; Keq of GSH adduct (apparent equilibrium) ([6]; pH 8.0): 7400 M⁻¹; conversion to GSH adduct ([6]; 20 min, 10:1 molar ratio of GSH to compound): 97%
18 | Cc1cc(=O)oc2cc(NC(=O)[C@H](CCCN=C(N)N)NC(=O)[C@H](CC(C)C)NC(=O)OCc3ccccc3)ccc12 [S4, Cbz-Leu-Arg-AMC] | 2.2 ± 0.3 | 8.4 ± 0.4 s⁻¹ | 0.88 | 
19 | O=C(N[C@@H](Cc1ccccc1)C(=O)N[C@H](/C=C/c1ccccn1)Cc1ccccc1)OCc1ccccc1 [Compound 11, Benzyl ((S)-1-Oxo-3-phenyl-1-(((S,E)-1-phenyl-4-(pyridin-2-yl)but-3-en-2-yl)amino)propan-2-yl)carbamate] |  |  |  | T. cruzi axenic culture EC50 [5]: poorly effective; reaction with GSH (adduct formation) ([6]; pH 8.0): no adduct was observed
20 | Cc1cc(=O)oc2cc(NC(=O)[C@H](CCc3ccccc3)NC(=O)[C@H](Cc3ccncc3)NC(=O)OCc3ccccc3)ccc12 [S8, Cbz-(4-Pyr)Ala-hPhe-AMC] (Cbz-[4Pal]-[hPhe]-{AMC}) | 4.6 ± 0.5 | 5.3 s⁻¹ and 5.3 ± 0.2 s⁻¹ | 0.55 | 
21 | O=C(N[C@@H](Cc1ccccc1)C(=O)N[C@H](/C=C/c1ccccn1)CCc1ccccc1)OCc1ccccc1 [Compound 13, Benzyl ((S)-1-Oxo-3-phenyl-1-(((S,E)-5-phenyl-1-(pyridin-2-yl)pent-1-en-3-yl)amino)propan-2-yl)carbamate] |  |  |  | T. cruzi axenic culture EC50 [5]: poorly effective
22 | O=C(N[C@@H](Cc1ccccc1)C(=O)N[C@H](/C=C/c1cc(C(F)(F)F)ccn1)CCc1ccccc1)OCc1ccccc1 [Compound 17, Benzyl ((S)-1-Oxo-3-phenyl-1-(((S,E)-5-phenyl-1-(4-(trifluoromethyl)pyridin-2-yl)pent-1-en-3-yl)amino)propan-2-yl)-carbamate] |  |  |  | reaction with GSH (adduct formation) ([6]; pH 8.0): no adduct was observed
23 | C[n+]1ccsc1/C=C/[C@H](Cc1ccccc1)NC(=O)[C@H](Cc1ccccc1)NC(=O)OCc1ccccc1.[I-] [Compound 26, 2-((S,E)-3-((S)-2-(((Benzyloxy)carbonyl)amino)-3-phenylpropanamido)-4-phenylbut-1-en-1-yl)-3-methylthiazol-3-ium Iodide] |  |  |  | rate of formation of GSH adduct ([6]; pH 8.0): 15 M⁻¹ s⁻¹; Keq of GSH adduct (apparent equilibrium) ([6]; pH 8.0): 930 M⁻¹
24 | O=C(N[C@@H](Cc1ccccc1)C(=O)N[C@H](/C=C/c1nccs1)Cc1ccccc1)OCc1ccccc1 [Compound 25, Benzyl ((S)-1-Oxo-3-phenyl-1-(((S,E)-1-phenyl-4-(thiazol-2-yl)-but-3-en-2-yl)amino)propan-2-yl)carbamate] |  |  |  | reaction with GSH (adduct formation) ([6]; pH 8.0): no adduct was observed
